Measured values reported in publication PMC2409906, “Establishment and characterisation of a human carcinoma cell line with acquired resistance to Aplidin™” (British Journal of Cancer, 2004).
Starred links: 1 amine or outer side, 2 acyl side, 3 side chain; linkers in the order of their positions; H or OH if unused. Positions of bridges follow the written chain, without caps; N, C: chain ends. Non-standard residues stand in square brackets, D forms with d. Residues, ends and D or L forms follow the SMILES beside them. *: point of attachment. X1 = CC[C@H](C)[C@@H](N[*:1])[C@@H](O)CC(=O)O[C@H](C(=O)[C@H](C)C(=O)[*:2])C(C)C; X3 = CC[C@H](C)[C@@H](N[*:1])[C@@H](O)CC(=O)[*:2]; X2 = CN(C)c1ccc2c(CC(=O)*)cc(=O)oc2c1; NMeY = CN[C@@H](Cc1ccc(O)cc1)C(=O)O; dNMeL = CN[C@H](CC(C)C)C(=O)O; Hiv = CC(C)[C@H](O)C(=O)O; Pyruvoyl = CC(=O)C(=O)*; Lac = C[C@H](O)C(=O)O

Columns and labels:
HeLa-APL cells = assay: Sulphorhodamine B (SRB) growth inhibition assay, resistant subline; format: cell-based, human; details: HeLa-APL vs HeLa wt; for crossresistance of HeLa-APL cells (IC50 values, SRB cell growth assay): 48 or 72 h exposure; for crossresistance of HeLa-APL cells: data not shown
Description: HeLa, HeLa-APL, LoVo and LoVo-dox ([Grandi et al, 1986]) cells were maintained in DMEM supplemented with 10% FCS and 100 U ml^−1 penicillin and streptomycin at 37°C and 5% CO2.
Cells were washed twice with PBS, fixed for 15 min in 1% glutaraldehyde solution, rinsed twice in PBS, and stained in 0.4% SRB solution for 30 min at room temperature. Cells were then rinsed several times with 1% acetic acid solution and air-dried. Sulphorhodamine B was then extracted in 10 mM trizma base solution and the absorbance measured at 490 nm. Cell survival was expressed as percentage of control cell growth.

Pgp170 in LoVo-Dox cells = biological target: T1, Pgp170 in LoVo-Dox cells (Homo sapiens, UniProt P08183); assay: Calcein-AM accumulation in LoVo-Dox cells (fluorescence microscopy); format: cell-based; details: 50 μM verapamil, Calcein-AM loaded for 1 h
T1 construct: endogenous in cells; host or cells: LoVo-Dox (doxorubicin-selected LoVo colorectal carcinoma cells)
T1 sequence (P08183 whole entry): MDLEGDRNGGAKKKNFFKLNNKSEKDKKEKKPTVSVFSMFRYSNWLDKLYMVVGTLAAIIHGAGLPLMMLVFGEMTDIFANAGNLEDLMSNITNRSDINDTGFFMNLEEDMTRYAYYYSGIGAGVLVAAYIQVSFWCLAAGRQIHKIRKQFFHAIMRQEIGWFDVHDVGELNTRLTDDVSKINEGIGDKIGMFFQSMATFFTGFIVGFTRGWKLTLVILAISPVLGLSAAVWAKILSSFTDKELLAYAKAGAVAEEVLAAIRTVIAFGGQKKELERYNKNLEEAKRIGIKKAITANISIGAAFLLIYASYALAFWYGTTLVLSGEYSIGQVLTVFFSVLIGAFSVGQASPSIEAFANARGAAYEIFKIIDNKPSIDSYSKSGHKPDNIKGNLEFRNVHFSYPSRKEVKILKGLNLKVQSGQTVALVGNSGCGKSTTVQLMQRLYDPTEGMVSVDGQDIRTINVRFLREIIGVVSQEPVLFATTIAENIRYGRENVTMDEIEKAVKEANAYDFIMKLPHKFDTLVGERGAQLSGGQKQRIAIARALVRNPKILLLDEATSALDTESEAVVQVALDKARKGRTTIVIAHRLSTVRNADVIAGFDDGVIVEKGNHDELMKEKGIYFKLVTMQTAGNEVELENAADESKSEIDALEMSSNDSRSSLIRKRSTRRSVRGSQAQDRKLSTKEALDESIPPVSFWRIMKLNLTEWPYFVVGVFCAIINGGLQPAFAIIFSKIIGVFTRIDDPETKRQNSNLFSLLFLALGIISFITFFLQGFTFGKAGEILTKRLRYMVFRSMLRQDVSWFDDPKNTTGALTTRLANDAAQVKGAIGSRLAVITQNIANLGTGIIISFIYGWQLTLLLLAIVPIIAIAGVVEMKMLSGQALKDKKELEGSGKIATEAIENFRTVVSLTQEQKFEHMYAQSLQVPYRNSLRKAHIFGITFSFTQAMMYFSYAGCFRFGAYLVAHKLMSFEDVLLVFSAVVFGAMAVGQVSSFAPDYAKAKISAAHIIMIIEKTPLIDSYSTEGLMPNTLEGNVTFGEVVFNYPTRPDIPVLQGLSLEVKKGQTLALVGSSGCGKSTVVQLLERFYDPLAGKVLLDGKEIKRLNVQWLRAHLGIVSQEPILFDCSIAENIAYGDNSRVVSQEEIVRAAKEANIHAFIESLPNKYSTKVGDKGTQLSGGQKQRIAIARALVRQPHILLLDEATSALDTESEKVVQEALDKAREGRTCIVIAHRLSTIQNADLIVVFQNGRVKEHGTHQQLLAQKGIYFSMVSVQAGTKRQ
Description: (§1) Cells were stained with APL-dmac, Calcein-AM or Hoechst-33342 by direct addition of the fluorescent compounds in the cell culture dishes, incubated at 37°C for the times indicated, washed in PBS and examined by fluorescence microscopy.

[1] = design: method as in Vervoort and Fenical, 2000; Joullie et al, 2003; details: ref Vervoort and Fenical, 2000; Joullie et al, 2003; cited from earlier work
[2] = system: HeLa wt and HeLa-APL cells; assay: Intracellular accumulation of fluorescent APL-dmac (fluorescence microscopy); format: in vitro ADME, human
Description: as §1

[3] = system: HeLa wt and HeLa-APL cells; assay: Detection of drug in cell extracts by Maldi-TOF mass spectrometry; format: in vitro ADME, human; details: 450 nM, 1 h exposure, methanol cell extracts, Maldi-TOF MS, parental and HeLa-APL cells
Description: To detect minute amounts of APL present in the cellular extracts, Matrix-Assisted Laser Desorption/Ionisation-Time Of Flight Mass Spectrometry (Maldi-TOF MS) technique was used. Cell cultures were treated with vehicle or APL at the concentrations and times indicated in the text, washed with PBS and harvested by centrifugation at 6000 r.p.m. for 5 min at 4°C. Cell pellets were washed with PBS and extracted with cold methanol. Equal amounts of extract were applied on a template, air dried, mixed with 0.2–0.5 μl matrix (10 mg ml^−1 dihydroxy benzoic acid in water :acetonitrile mix, 1% trifluoroacetic acid) and air dried. Analyses were performed on a Voyager DE Pro (PerSeptive Biosystems, Framingham, MS, USA). Mass spectra were averaged over 100–200 laser shots from a nitrogen laser (337 nm) operating in a linear mode. Ionised molecules were accelerated with a voltage of 20 kV. The following peptides were used as external markers: intact human insulin, human insulin alpha-chain, human insulin beta-chain and cytochrome c.

human leukaemia samples = details: ref Bresters et al, 2003; cited from earlier work

Compound: Nc1nc(F)nc2c1ncn2[C@@H]1O[C@H](CO)[C@@H](O)[C@@H]1O [fludarabine]
- crossresistance of HeLa-APL cells (IC50 values, SRB cell growth assay) (HeLa-APL cells; triplicate plates): no significant crossresistance

Compound: COc1ccc(CCN(C)CCCC(C#N)(c2ccc(OC)c(OC)c2)C(C)C)cc1OC (centres unmarked) [verapamil]
- effect of pre-incubation on calcein-AM accumulation (Pgp170 in LoVo-Dox cells): accumulation of calcein-AM in LoVo-Dox-resistant cells to an extent similar to that observed in sensitive LoVo cells

Compound: O=C(O)CCCc1ccc(N(CCCl)CCCl)cc1 [chlorambucil]
- crossresistance of HeLa-APL cells (HeLa-APL cells): no significant crossresistance

Compound: COc1cc(NS(C)(=O)=O)ccc1Nc1c2ccccc2nc2ccccc12 [amsacrine]
- crossresistance of HeLa-APL cells (HeLa-APL cells): no significant crossresistance

Compound: N.N.[Cl][Pt][Cl] [cisplatin]
- crossresistance of HeLa-APL cells (IC50 values, SRB cell growth assay) (HeLa-APL cells; triplicate plates): no significant crossresistance

Compound: didemnin B
- crossresistance of HeLa-APL cells to APL structural analogues (HeLa-APL cells; 48 h exposure, SRB assay, triplicate plates): comparable crossresistance
- cytotoxic activity relative to APL [1]: comparable to that of APL

Compound: CC(=O)O[C@H]1C(=O)[C@@]2(C)[C@H]([C@H](OC(=O)c3ccccc3)[C@]3(O)C[C@H](OC(=O)[C@H](O)[C@@H](NC(=O)c4ccccc4)c4ccccc4)C(C)=C1C3(C)C)[C@]1(OC(C)=O)CO[C@@H]1C[C@@H]2O [paclitaxel]
- crossresistance of HeLa-APL cells (IC50 values, SRB cell growth assay) (HeLa-APL cells; triplicate plates): no significant crossresistance

Compound: Nc1nc2nc[nH]c2c(=S)[nH]1 [6-thioguanine]
- crossresistance of HeLa-APL cells (IC50 values, SRB cell growth assay) (HeLa-APL cells; triplicate plates): no significant crossresistance

Compound: CC[C@H](C)[C@H]1NC(=O)[C@@H](NC(=O)[C@@H](CC(C)C)N(C)C(=O)[C@@H]2CCCN2C(=O)[C@H](C)O)[C@@H](C)OC(=O)[C@H](Cc2ccc(OC)cc2)N(C)C(=O)[C@@H]2CCCN2C(=O)[C@H](CC(C)C)NC(=O)[C@H](C(C)C)OC(=O)C[C@@H]1O [tamandarin A] (H-[Lac]P[dNMeL]T[X3][Hiv]LP[NMeY](Me); ester 4-C)
- cytotoxic activity relative to APL [1]: comparable to that of APL

Compound: CC[C@H](C)[C@H]1NC(=O)[C@@H](NC(=O)[C@@H](CC(C)C)N(C)C(=O)Cc2cc(=O)oc3cc(N(C)C)ccc23)[C@@H](C)OC(=O)[C@H](Cc2ccc(OC)cc2)N(C)C(=O)[C@@H]2CCCN2C(=O)[C@H](CC(C)C)NC(=O)[C@@H](C)C(=O)[C@H](C(C)C)OC(=O)C[C@@H]1O [APL-dmac, aplidin-dimethylaminocoumarin] (X2-[dNMeL]T[X1]LP[NMeY](Me); ester 2-C)
- internalisation and accumulation in the cytoplasmic compartment ([2]; 450 nM APL-dmac, 1 h, 37°C, HeLa wt and HeLa-APL): consistent in both cell systems
- internalisation after long-term treatment ([2]; not shown): remained internalised
- presence of the intact drug in cells [3]: detected in both cell lines

Compound: Nc1ncn([C@@H]2O[C@H](CO)[C@@H](O)[C@H]2O)c(=O)n1 [5-azacytidine]
- crossresistance of HeLa-APL cells (IC50 values, SRB cell growth assay) (HeLa-APL cells; triplicate plates): no significant crossresistance

Compound: O=C1c2c(O)ccc(O)c2C(=O)c2c(NCCNCCO)ccc(NCCNCCO)c21 [mitoxantrone]
- crossresistance of HeLa-APL cells (HeLa-APL cells): no significant crossresistance

Compound: CC[C@H](C)[C@H]1NC(=O)[C@@H](NC(=O)[C@@H](CC(C)C)N(C)C(=O)[C@@H]2CCCN2C(=O)C(C)=O)[C@@H](C)OC(=O)[C@H](Cc2ccc(OC)cc2)N(C)C(=O)[C@@H]2CCCN2C(=O)[C@H](CC(C)C)NC(=O)[C@@H](C)C(=O)[C@H](C(C)C)OC(=O)C[C@@H]1O [APL, Aplidin™] (Pyruvoyl-P[dNMeL]T[X1]LP[NMeY](Me); ester 3-C)
- presence of the intact drug in cells [3]: confirmed

Compound: N[C@@H](Cc1ccc(N(CCCl)CCCl)cc1)C(=O)O [melphalan]
- crossresistance of HeLa-APL cells (HeLa-APL cells): no significant crossresistance

Compound: COc1cc([C@@H]2c3cc4c(cc3[C@@H](O[C@@H]3O[C@@H]5CO[C@@H](C)O[C@H]5[C@H](O)[C@H]3O)[C@H]3COC(=O)[C@H]23)OCO4)cc(OC)c1O [etoposide]
- crossresistance of HeLa-APL cells (IC50 values, SRB cell growth assay) (HeLa-APL cells; triplicate plates): no significant crossresistance

Compound: Sc1ncnc2nc[nH]c12 [6-mercaptopurine]
- crossresistance of HeLa-APL cells (IC50 values, SRB cell growth assay) (HeLa-APL cells; triplicate plates): no significant crossresistance

Compound: CC[C@]1(O)C[C@@H]2CN(CCc3c([nH]c4ccccc34)[C@@](C(=O)OC)(c3cc4c(cc3OC)N(C)[C@H]3[C@@](O)(C(=O)OC)[C@H](OC(C)=O)[C@]5(CC)C=CCN6CC[C@]43[C@@H]65)C2)C1 [vinblastine]
- crossresistance of HeLa-APL cells (IC50 values, SRB cell growth assay) (HeLa-APL cells; triplicate plates): no significant crossresistance

Compound: Nc1ccn([C@@H]2O[C@H](CO)[C@@H](O)C2(F)F)c(=O)n1 [2′,2′-difluorodeoxycytidine]
- crossresistance with APL (human leukaemia samples): trend for crossresistance

Compound: COc1cccc2c1C(=O)c1c(O)c3c(c(O)c1C2=O)C[C@@](O)(C(=O)CO)C[C@@H]3O[C@H]1C[C@H](N)[C@H](O)[C@H](C)O1 [doxorubicin]
- crossresistance of HeLa-APL cells (IC50 values, SRB cell growth assay) (HeLa-APL cells; triplicate plates): no significant crossresistance

Compound: CC[C@@]1(O)C(=O)OCc2c1cc1n(c2=O)Cc2cc3ccccc3nc2-1 [camptothecin]
- crossresistance of HeLa-APL cells (IC50 values, SRB cell growth assay) (HeLa-APL cells; triplicate plates): no significant crossresistance
